Laboratory results taken from publication PMC5784158, “New 2-Aryl-9-methyl-β-carbolinium salts as Potential Acetylcholinesterase Inhibitor agents: Synthesis, Bioactivity and Structure–Activity Relationship” (Scientific Reports, 2018).
Like-named read-outs stand apart in the source and are kept apart here. Marks after values point to notes of the source that are not given here.

How the values were obtained:
BuChE [1] = settings: read-out: IC50 ± S.D BuChE; cited from earlier work
AChE [2] = settings: cited from earlier work
BuChE [3] = target: T1, BuChE (Equus caballus, UniProt P81908); assay: BuChE inhibition, Ellman's method; format: biochemical, horse; settings: read-out: IC50 ± S.D BuChE
T1 construct: BuChE (E.C. 3.1.1.8) (BR, 20 u/mg) from horse serum; purchased Shanghai Yuanye biological technology Co. Ltd (Shanghai, China); host or cells: horse serum (tissue-derived)
From the text: There is increasing recognition that BuChE may play an important role in cholinergic transmission[15],[16]. While the level of AChE decreases dramatically in the advanced stage of AD, BuChE increases in brain regions involved in cognitive functions[17],[18]. At this point, BuChE is able to compensate for AChE loss by hydrolyzing ACh. These observations lead one to believe that inhibition of both AChE and BuChE may contribute to improvement of current symptomatic treatments of AD. Therefore, the compounds in Table 2 were also evaluated for BuChE inhibition activity by means of Ellman’s method. […] AChE (E.C. 3.1.1.7) (BR, 200 u/mg) from fly’s head and BuChE (E.C. 3.1.1.8) (BR, 20 u/mg) from horse serum were purchased from Shanghai Yuanye biological technology Co. Ltd (Shanghai, China).
(§1) The inhibitory activities of the compounds against AChE were evaluated according to Ellman’s coupled enzyme assay[47] with the following modifications. 90 μL potassium phosphate buffer (PBS, 0.1 M, pH 7.4), 10 μL the solution of 2 units/mL AChE in 0.1 M PBS (pH 7.4) and 10 μL the solution of 200 μM test compounds in the mixed solution of methanol-PBS (pH 7.4) (1:9, V/V) were added to each well of a 96-well plate. The methanol-PBS solution was used as a blank control. After incubation at room temperature for 10 min, 60 μL the solution of 10 mM DTNB in PBS was added into each the well. The plate was placed on crushed ices and cooled for 20 min. To each the well was added 30 μL the solution of 7.5 mM ATCh in PBS (pH 7.4). […] Each test was performed in triplicate. Inhibition rates of the enzyme were calculated relative to a control sample. The inhibitory activities against BuChE were measured as described above for AChE, using 0.7 unit/mL BuChE and 4 mM BuTCh instead of AChE and ATCh as the enzyme and substrate, respectively.
(§2) The probit value of the average inhibition rate for each test concentration and the corresponding lg[concentration] were used to establish enzyme inhibition regression equation by the linear least-square fitting method. IC50 values were calculated from the equations.

AChE [4] = target: T2, AChE (Musca domestica, UniProt Q7YWJ9); assay: biochemical; format: biochemical, fly; settings: for IC50: read-out: IC50 ± S.D AChE
Method: AChE (E.C. 3.1.1.7) (BR, 200 u/mg) from fly’s head and BuChE (E.C. 3.1.1.8) (BR, 20 u/mg) from horse serum were purchased from Shanghai Yuanye biological technology Co. Ltd (Shanghai, China).
as §1, §2

[5] = In vitro cytotoxicity, MTT assay; settings: mouse, mouse neuroblastoma N2a cells
AChE [6] = target: T2, AChE; assay: Kinetic analysis of AChE inhibition (substrate ATCh); format: biochemical, fly; settings: for Ki: substrate ATCh, read-out: inhibition constant Ki for AChE; for mechanism of AChE inhibition: with respect to substrate ATCh
From the text: (A and B) The reciprocals of the initial reaction rates and substrate concentrations are plotted. (C and D) The slope values of the lines from graph A or C are plotted versus the inhibitor concentration, affording an equation of linear regression.

[7] = In vitro cytotoxicity, MTT assay; settings: pig, primary cultured porcine fetal kidney cells
Method: (§3) In vitro cytotoxicity assay
(§4) Cytotoxic activity of the compounds was determined using MTT assay1. Primary cultured goat fetal fibroblasts and primary cultured porcine fetal kidney cells were cultured in the DMEM medium (high glucose) and a mixture culture medium consisting of 50% DMEM (high glucose) and 50% DMEM/F12, respectively, supplemented with 10% fetal bovine serum, penicillin (100 U/mL) and streptomycin (100 μg/mL) at 37 ℃ in 5% CO2. The cells at […]
(§5) After removal of the medium, the cells in each well were treated with 200 μL solution containing different concentrations of the tested compounds and vehicle controls which only received an equivalent amount of DMSO in quintuplicate for 48 h at 37 ℃. Thirty microliter of MTT solution (5 mg/mL in PBS) was added to each well with […] for an additional 4 h. After removing the supernatant, 150 μL of DMSO was added to completely dissolve the formazan crystals that had formed in viable cells in the wells. Finally, the plates were […]
(§6) containing the same media as other test wells but no cells were used as blank controls. All the doses were tested in quintuplicate and the experiments were repeated at least three times. The inhibition rates (IRs) were calculated.
(§7) (GraphPad Software Inc., San Diego, CA, USA).

[8] = test system: mouse neuroblastoma N2a cells; assay: In vitro cytotoxicity, MTT assay; settings: read-out: Cytotoxicity IC50, mouse neuroblastoma N2a cells; 48 h
[9] = test system: primary cultured porcine fetal kidney cells; assay: In vitro cytotoxicity, MTT assay; settings: read-out: Cytotoxicity IC50, primary cultured porcine fetal kidney cells; 48 h
Method: as §3, §4, §5, §6, §7

[10] = test concentration of the compound 10 μM

T2 sequence (Q7YWJ9 81-659): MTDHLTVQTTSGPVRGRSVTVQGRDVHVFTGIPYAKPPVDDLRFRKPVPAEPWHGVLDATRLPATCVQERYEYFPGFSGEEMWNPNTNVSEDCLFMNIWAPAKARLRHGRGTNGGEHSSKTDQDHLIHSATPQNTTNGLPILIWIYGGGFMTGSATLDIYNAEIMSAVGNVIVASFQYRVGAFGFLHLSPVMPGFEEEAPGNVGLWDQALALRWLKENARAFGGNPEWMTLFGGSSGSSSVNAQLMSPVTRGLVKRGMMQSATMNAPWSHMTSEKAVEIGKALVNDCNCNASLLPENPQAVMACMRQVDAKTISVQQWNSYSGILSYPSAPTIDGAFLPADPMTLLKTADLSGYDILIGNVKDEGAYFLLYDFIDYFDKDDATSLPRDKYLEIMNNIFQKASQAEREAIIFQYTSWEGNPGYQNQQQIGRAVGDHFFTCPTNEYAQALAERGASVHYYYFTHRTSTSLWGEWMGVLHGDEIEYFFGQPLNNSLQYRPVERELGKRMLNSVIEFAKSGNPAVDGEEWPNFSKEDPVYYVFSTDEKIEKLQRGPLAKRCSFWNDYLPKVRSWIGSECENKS
T1 sequence (P81908 whole entry): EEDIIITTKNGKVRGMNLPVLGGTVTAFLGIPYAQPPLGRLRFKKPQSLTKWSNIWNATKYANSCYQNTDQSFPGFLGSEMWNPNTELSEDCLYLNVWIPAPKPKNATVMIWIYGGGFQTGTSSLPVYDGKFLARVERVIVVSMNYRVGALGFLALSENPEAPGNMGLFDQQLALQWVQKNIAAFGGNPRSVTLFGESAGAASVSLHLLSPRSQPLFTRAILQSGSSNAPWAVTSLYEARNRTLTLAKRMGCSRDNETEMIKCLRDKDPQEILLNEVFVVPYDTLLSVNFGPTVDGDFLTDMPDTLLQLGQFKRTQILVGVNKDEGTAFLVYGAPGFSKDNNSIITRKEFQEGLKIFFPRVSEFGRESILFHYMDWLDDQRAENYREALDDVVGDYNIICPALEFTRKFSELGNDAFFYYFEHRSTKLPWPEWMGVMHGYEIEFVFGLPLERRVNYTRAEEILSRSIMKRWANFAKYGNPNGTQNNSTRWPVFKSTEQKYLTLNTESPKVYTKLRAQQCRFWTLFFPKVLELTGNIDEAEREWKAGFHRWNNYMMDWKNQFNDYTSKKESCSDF

| Compound | IC50 (BuChE [3]) [µM] | SI: selectivity index, ratio IC50 (BuChE)/IC50 (AChE) (AChE [4]) | IC50 (AChE [4]) [µM] | Inhibition rate (%) (AChE [4]; [10]) | also measured |
| --- | --- | --- | --- | --- | --- |
| Nc1c2c(nc3cc(Cl)ccc13)C[C@H]1C=C(CCO)C[C@@H]2C1 [huprine W] |  |  |  |  | IC50 (AChE [2]; inhibitor co-crystallised with AChE (PDB 4BDT), reference not given, read-out: IC50 AChE): 0.0011 µM |
| Cc1ccc([N+]2=Cc3c(c4ccccc4n3C)CC2)cc1 [Compound A22] | 80.1 ± 5.27 | 55.2 | 1.45 ± 0.21 |  | inhibition at 10 µM (AChE [4]; test concentration of the compound 10 μM, read-out: Inhibition rate (%)): 77.6 ± 1.5%; IC50 at 48 h [5]: 2130 nM; Ki (AChE [6]): 483 nM; mechanism of AChE inhibition (AChE [6]): competitive; IC50 at 48 h [7]: 5.18 µM |
| Cn1c2ccccc2c2cc[n+](-c3cccc(C#N)c3)cc21.[Br-] [Compound B24, 9-Methyl-2-(3-cyanophenyl)-β-carboline bromide] | 212 ± 17.4 | 20.6 | 10.3 ± 0.6 | 50.7 ± 2.2 pq % |  |
| Cn1c2ccccc2c2cc[n+](-c3cccc(O)c3)cc21.[Br-] [Compound B15, 9-Methyl-2-(3-hydroxyhenyl)-β-carboline bromide] | 29.6 ± 2.48 | 7.60 | 3.92 ± 0.3 | 72.1 ± 1.8 l % |  |
| CCn1c2c(c3ccccc31)CC[N+](c1ccccc1)=C2.[Br-] [Compound A38] | 10.4 ± 0.4 | 2.82 | 3.69 ± 0.4 | 76.6 ± 3.7 a % |  |
| Cn1c2ccccc2c2cc[n+](-c3ccccc3F)cc21.[Br-] [Compound B2, 9-Methyl-2-(2-fluorophenyl)-β-carboline bromide] | 23 ± 0.53 | 3.49 | 6.65 ± 1.07 | 59.8 ± 3.2 n % |  |
| COc1cccc(-[n+]2ccc3c4ccccc4n(C)c3c2)c1.[Br-] [Compound B18, 9-Methyl-2-(3-methoxylphenyl)-β-carboline bromide] | 62.2 ± 3.62 | 6.42 | 9.69 ± 0.8 | 53.5 ± 0.4 op % |  |
| Cc1ccc(-[n+]2ccc3c4ccccc4n(C)c3c2)cc1.[Br-] [Compound B22, 9-Methyl-2-(4-methylphenyl)-β-carboline bromide] | 32.2 ± 1.65 | 111.6 |  | 95.2 ± 0.5 abc % | IC50 [8]: 19.2 µM; binding capacity with AChE relative to substrate ATCh (AChE [6]; Km of ATCh versus Ki): ~3835 fold; binding capacity with AChE relative to A22 (AChE [6]; ratio of Ki values): approximately 11 fold; Ki (AChE [6]): 42.5 nM; mechanism of AChE inhibition (AChE [6]): competitive; IC50 [9]: 18.1 µM |
| Cn1c2ccccc2c2cc[n+](-c3ccc(O)cc3)cc21.[Br-] [Compound B16, 9-Methyl-2-(4-hydroxyhenyl)-β-carboline bromide] | 67.9 ± 11.5 | 45.3 | 1.5 ± 0.19 | 82.1 ± 2.5 ij % |  |
| COc1ccc([N+]2=Cc3c(c4ccccc4n3C)CC2)cc1.[Br-] [Compound A19] | 137 ± 0.79 | 46.9 | 2.92 ± 0.28 | 66.1 ± 0.5 c % |  |
| Cn1c2ccccc2c2cc[n+](-c3ccc(Br)cc3Br)cc21.[Br-] [Compound B33, 9-Methyl-2-(2,4-dibromophenyl)-β-carboline bromide] | 30.6 ± 2.31 | 278.2 |  | 96.7 ± 0.05 a % | IC50 [8]: 10.6 µM; IC50 [9]: > 20 µM |
| C=CCn1c2c(c3ccccc31)CC[N+](c1ccccc1)=C2.[Br-] [Compound A41] | 6.83 ± 0.2 | 1.75 | 3.91 ± 0.36 | 74.4 ± 1.1 ab % |  |
| Cn1c2ccccc2c2cc[n+](-c3ccc(Cl)cc3Cl)cc21.[Br-] [Compound B30, 9-Methyl-2-(2,4-dichlorophenyl)-β-carboline bromide] | 133 ± 26.3 | 241.1 | 0.55 ± 0.07 | 90.6 ± 1.0 def % |  |
| Cn1c2ccccc2c2cc[n+](-c3cccc(Cl)c3)cc21.[Br-] [Compound B6, 9-Methyl-2-(3-chlorophenyl)-β-carboline bromide] | 33.1 ± 1.07 | 3.40 | 9.65 ± 0.78 | 56.4 ± 2.5 no % |  |
| CC(=O)SCC[N+](C)(C)C [acetylthiocholine iodide, Acetylthiocholine iodide, reference compound] |  |  |  |  | Km (AChE [6]; substrate): 163 µM |
| Cn1c2c(c3ccccc31)CC[N+](c1ccc(O)cc1)=C2.[Br-] [Compound A16] | 28 ± 2.88 | 9.96 | 2.81 ± 0.22 | 64.3 ± 0.3 cd % |  |
| Cn1c2ccccc2c2cc[n+](-c3cccc(F)c3)cc21.[Br-] [Compound B3, 9-Methyl-2-(3-fluorophenyl)-β-carboline bromide] | 72.4 ± 4.25 | 15.3 | 4.73 ± 0.33 | 70.5 ± 2.2 l % |  |
| Cn1c2c(c3ccc(F)cc31)CC[N+](c1ccccc1)=C2.[Br-] [Compound A36] | 14.2 ± 0.44 | 3.00 | 4.74 ± 0.9 | 59.3 ± 2.1 de % |  |
| Cn1c2c(c3ccccc31)CC[N+](c1ccc(Cl)cc1)=C2.[Br-] [Compound A7] | 42.2 ± 0.86 | 5.57 | 7.58 ± 1.29 | 60.1 ± 2.9 d % |  |
| Cn1c2ccccc2c2cc[n+](-c3ccc(I)cc3)cc21.[Br-] [Compound B13, 9-Methyl-2-(4-iodohenyl)-β-carboline bromide] | 40.4 ± 1.83 | 168.3 |  | 93.8 ± 0.4 abcd % |  |
| Cn1c2ccccc2c2cc[n+](-c3ccc(F)cc3)cc21.[Br-] [Compound B4, 9-Methyl-2-(4-fluorophenyl)-β-carboline bromide] | 51.6 ± 2.43 | 35.3 | 1.46 ± 0.12 | 84.3 ± 1.5 hi % |  |
| Cn1c2ccccc2c2cc[n+](-c3ccc(Cl)cc3)cc21.[Br-] [Compound B7, 9-Methyl-2-(4-chlorophenyl)-β-carboline bromide] | 60 ± 1.52 | 107.1 | 0.56 ± 0.07 | 91.2 ± 1.5 cde % |  |
